Test results: ChEMBL document CHEMBL5465560, “Selectivity Literature for EUbOPEN Chemogenomic Library” (2024)

Legend:
[1] = target: DNA-dependent protein kinase catalytic subunit (Homo sapiens) (UniProt P78527); assay: Selectivity interaction (Kinase panel (Z-LYTE Assay)) EUB0001632a PRKDC; conditions: at 10 µM
[2] = target: Tyrosine-protein kinase receptor Tie-1 (Homo sapiens) (UniProt P35590); assay: Selectivity interaction (KinomeScan (DiscoverX)) EUB0001868a TIE1; conditions: at 1 µM
[3] = target: Casein kinase I isoform alpha (Homo sapiens, UniProt P48729); assay: Selectivity interaction (Enzymatic assay) EUB0001199aCl CSNK1A1
[4] = target: Cyclin-dependent kinase 16 (Homo sapiens) (UniProt Q00536); assay: Selectivity interaction (ActivX KiNativ screen (kinase selectivity in THP-1 cell lysates)) EUB0000639a CDK16; assay type: subcellular; conditions: lysate
[5] = target: T1, Tyrosine-protein kinase Tec (Homo sapiens) (UniProt P42680); assay: Selectivity interaction (ActivX KiNativ screen (kinase selectivity in THP-1 cell lysates)) EUB0000639a TEC; assay type: subcellular; conditions: lysate, at 1 µM
T1 sequence (whole entry): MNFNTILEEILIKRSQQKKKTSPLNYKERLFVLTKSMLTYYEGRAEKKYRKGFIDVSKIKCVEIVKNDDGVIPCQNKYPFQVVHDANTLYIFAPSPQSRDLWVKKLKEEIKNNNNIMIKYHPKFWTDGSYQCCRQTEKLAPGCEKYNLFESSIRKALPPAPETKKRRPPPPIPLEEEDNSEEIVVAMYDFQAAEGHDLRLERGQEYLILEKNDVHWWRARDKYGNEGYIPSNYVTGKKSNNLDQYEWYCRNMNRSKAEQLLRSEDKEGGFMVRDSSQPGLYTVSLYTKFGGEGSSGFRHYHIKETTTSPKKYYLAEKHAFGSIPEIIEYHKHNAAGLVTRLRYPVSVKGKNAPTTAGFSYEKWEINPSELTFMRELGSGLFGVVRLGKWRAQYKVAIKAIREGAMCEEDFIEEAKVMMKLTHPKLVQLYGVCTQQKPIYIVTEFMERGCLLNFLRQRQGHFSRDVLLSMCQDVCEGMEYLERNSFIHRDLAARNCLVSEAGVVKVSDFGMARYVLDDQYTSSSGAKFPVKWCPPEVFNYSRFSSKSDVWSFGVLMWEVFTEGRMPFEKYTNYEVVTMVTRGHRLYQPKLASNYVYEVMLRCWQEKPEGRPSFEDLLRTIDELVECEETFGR

[6] = target: Ribosomal protein S6 kinase alpha-1 (Homo sapiens, UniProt Q15418); assay: Selectivity interaction (KinomeScan (DiscoverX)) EUB0000695a RPS6KA1; conditions: at 100 nM
[7] = target: Serine/threonine-protein kinase VRK2 (Homo sapiens) (UniProt Q86Y07); assay: Selectivity interaction (Ambit KINOMEscan and KiNATiv profiling in Jurkat cells) EUB0000090b VRK2; assay type: cell-based; conditions: at 1 µM
[8] = target: T2, Activin receptor type-1 (Homo sapiens) (UniProt Q04771); assay: Selectivity interaction (KinomeScan (DiscoverX)) EUB0000045b ACVR1
T2 sequence (whole entry): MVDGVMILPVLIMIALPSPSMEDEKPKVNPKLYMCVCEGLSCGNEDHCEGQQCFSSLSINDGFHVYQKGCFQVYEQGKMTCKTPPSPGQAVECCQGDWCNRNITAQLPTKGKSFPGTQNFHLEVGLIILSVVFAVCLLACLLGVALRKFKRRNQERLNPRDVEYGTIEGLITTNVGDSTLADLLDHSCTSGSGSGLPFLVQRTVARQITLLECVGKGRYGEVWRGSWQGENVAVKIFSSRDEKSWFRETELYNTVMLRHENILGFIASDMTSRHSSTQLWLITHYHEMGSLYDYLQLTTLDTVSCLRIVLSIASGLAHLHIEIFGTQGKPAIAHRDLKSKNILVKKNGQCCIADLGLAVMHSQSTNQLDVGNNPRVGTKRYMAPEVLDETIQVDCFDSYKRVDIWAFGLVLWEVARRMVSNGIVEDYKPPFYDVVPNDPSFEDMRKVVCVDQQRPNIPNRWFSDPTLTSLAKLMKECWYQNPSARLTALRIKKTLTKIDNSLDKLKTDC

[9] = target: Mitogen-activated protein kinase kinase kinase 9 (Homo sapiens) (UniProt P80192); assay: Selectivity interaction (KinomeScan (DiscoverX)) EUB0000045b MAP3K9
[10] = target: Tyrosine-protein kinase ABL2 (Homo sapiens, UniProt P42684); assay: Selectivity interaction (KinomeScan (DiscoverX)) EUB0001079a ABL2; conditions: at 1 µM
[11] = target: RAF proto-oncogene serine/threonine-protein kinase (Homo sapiens) (UniProt P04049); assay: Selectivity interaction (KinomeScan (DiscoverX)) EUB0000092b RAF1; conditions: at 10 µM
[12] = target: T3, Mitogen-activated protein kinase kinase kinase 12 (Homo sapiens) (UniProt Q12852); assay: Selectivity interaction (KinomeScan (DiscoverX)) EUB0001619a MAP3K12; conditions: at 1 µM
T3 sequence (whole entry): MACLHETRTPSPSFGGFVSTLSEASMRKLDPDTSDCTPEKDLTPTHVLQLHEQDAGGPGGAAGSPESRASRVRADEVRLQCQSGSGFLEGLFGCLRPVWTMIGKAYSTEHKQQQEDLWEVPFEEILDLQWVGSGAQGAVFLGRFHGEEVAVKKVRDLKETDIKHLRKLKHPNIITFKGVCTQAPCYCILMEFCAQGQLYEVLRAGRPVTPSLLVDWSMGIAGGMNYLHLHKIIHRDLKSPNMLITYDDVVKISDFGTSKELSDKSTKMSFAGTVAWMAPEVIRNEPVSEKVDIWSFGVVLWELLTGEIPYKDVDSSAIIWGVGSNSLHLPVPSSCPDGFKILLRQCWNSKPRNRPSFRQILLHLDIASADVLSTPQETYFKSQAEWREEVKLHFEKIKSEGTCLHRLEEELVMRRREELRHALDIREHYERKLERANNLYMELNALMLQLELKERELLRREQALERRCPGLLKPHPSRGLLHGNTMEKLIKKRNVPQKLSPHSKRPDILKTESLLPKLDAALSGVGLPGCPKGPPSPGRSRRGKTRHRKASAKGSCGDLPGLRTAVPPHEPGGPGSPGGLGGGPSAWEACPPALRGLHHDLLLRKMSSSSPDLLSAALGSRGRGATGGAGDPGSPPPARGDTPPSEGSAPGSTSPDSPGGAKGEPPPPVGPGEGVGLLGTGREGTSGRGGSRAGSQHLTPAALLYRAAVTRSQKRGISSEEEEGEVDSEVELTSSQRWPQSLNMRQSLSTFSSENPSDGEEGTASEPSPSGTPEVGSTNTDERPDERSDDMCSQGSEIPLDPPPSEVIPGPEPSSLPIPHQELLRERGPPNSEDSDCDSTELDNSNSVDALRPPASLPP

Chain of Cyclin-dependent kinase 16 (Homo sapiens) (Q00536 whole entry): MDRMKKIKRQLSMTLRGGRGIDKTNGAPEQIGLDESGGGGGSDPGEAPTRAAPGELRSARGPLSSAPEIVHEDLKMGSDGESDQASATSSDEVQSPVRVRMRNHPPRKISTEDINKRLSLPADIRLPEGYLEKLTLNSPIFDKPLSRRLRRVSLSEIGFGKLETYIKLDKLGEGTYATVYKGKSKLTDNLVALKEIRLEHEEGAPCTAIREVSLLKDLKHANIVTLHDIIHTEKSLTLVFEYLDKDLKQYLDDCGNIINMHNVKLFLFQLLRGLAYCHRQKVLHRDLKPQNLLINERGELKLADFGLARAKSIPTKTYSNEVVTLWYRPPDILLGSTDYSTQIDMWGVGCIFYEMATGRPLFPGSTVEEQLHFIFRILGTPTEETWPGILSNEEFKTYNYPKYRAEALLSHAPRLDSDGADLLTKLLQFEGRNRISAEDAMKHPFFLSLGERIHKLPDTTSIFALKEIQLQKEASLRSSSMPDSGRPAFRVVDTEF
Chain of Mitogen-activated protein kinase kinase kinase 9 (Homo sapiens) (P80192 whole entry, looked up): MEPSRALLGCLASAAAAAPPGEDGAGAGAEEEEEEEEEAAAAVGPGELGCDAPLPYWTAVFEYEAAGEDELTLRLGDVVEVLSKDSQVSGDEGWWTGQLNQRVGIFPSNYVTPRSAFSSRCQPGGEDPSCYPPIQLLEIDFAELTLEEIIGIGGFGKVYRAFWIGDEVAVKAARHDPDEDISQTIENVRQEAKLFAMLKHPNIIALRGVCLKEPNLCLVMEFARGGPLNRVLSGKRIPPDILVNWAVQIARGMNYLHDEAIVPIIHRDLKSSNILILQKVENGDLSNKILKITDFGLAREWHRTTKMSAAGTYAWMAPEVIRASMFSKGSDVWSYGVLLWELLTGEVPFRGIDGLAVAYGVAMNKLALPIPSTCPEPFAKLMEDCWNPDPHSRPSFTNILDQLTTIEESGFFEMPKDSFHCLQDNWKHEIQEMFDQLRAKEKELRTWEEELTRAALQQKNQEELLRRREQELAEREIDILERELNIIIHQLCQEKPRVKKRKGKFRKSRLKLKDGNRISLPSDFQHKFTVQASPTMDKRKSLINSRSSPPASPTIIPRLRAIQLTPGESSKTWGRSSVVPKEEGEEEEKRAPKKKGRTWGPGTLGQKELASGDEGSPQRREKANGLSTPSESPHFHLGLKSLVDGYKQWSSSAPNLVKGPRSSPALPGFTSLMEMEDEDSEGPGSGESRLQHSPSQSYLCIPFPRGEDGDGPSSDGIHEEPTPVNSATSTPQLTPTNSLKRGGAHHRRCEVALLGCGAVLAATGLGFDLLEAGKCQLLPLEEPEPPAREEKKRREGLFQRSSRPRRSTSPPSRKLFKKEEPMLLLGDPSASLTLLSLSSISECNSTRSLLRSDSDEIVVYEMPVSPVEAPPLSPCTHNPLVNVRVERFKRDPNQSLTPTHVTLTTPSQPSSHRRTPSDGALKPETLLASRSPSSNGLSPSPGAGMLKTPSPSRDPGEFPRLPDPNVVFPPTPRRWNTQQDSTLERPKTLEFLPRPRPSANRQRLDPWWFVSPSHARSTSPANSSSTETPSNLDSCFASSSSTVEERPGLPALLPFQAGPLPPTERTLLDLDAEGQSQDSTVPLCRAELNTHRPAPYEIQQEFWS
Chain of Tyrosine-protein kinase receptor Tie-1 (Homo sapiens) (P35590 whole entry, canonical isoform): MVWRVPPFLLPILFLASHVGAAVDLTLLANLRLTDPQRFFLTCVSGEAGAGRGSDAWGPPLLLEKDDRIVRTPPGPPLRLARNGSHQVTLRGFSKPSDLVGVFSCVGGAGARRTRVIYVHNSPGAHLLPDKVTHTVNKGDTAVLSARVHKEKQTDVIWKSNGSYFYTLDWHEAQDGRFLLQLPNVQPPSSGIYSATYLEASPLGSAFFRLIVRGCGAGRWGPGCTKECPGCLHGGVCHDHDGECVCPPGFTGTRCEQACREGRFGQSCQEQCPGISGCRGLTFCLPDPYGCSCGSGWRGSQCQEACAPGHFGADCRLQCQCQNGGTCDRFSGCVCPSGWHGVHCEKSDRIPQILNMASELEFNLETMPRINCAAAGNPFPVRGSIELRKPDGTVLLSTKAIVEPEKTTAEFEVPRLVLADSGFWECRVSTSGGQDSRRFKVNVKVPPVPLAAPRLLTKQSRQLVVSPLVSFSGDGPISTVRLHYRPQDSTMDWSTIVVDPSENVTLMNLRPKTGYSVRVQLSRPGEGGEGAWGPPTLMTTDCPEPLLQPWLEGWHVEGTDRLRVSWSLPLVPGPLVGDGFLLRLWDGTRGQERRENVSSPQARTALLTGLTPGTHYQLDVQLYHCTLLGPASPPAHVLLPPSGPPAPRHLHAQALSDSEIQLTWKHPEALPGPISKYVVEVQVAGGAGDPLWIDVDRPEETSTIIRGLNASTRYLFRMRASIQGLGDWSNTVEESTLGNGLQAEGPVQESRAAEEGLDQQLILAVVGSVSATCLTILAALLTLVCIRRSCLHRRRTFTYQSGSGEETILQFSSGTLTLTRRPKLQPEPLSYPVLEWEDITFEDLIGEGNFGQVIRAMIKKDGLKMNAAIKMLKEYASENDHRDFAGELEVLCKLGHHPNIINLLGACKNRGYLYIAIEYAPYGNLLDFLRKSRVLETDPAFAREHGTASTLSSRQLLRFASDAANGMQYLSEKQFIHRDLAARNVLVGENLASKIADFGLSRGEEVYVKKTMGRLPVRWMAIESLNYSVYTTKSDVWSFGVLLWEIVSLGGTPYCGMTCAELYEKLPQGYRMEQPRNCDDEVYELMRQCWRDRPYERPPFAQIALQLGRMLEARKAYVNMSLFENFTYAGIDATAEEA
Chain of RAF proto-oncogene serine/threonine-protein kinase (Homo sapiens) (P04049 whole entry): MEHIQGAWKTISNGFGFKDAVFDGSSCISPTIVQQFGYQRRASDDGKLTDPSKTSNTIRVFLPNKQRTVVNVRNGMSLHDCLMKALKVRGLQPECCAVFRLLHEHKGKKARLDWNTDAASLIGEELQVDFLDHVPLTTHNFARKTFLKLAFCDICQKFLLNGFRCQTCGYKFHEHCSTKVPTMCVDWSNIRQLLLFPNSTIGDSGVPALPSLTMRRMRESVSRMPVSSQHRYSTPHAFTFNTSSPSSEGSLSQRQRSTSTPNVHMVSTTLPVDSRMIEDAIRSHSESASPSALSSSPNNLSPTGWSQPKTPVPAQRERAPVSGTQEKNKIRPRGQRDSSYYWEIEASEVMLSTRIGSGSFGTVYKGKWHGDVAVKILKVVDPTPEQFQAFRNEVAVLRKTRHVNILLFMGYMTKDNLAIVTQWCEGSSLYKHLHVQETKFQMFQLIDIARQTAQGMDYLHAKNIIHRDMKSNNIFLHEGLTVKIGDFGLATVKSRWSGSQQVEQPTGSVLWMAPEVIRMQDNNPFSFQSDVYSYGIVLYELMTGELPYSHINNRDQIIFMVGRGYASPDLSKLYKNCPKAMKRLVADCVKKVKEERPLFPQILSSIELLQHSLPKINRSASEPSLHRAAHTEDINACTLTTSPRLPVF
Chain of Tyrosine-protein kinase ABL2 (P42684 whole entry): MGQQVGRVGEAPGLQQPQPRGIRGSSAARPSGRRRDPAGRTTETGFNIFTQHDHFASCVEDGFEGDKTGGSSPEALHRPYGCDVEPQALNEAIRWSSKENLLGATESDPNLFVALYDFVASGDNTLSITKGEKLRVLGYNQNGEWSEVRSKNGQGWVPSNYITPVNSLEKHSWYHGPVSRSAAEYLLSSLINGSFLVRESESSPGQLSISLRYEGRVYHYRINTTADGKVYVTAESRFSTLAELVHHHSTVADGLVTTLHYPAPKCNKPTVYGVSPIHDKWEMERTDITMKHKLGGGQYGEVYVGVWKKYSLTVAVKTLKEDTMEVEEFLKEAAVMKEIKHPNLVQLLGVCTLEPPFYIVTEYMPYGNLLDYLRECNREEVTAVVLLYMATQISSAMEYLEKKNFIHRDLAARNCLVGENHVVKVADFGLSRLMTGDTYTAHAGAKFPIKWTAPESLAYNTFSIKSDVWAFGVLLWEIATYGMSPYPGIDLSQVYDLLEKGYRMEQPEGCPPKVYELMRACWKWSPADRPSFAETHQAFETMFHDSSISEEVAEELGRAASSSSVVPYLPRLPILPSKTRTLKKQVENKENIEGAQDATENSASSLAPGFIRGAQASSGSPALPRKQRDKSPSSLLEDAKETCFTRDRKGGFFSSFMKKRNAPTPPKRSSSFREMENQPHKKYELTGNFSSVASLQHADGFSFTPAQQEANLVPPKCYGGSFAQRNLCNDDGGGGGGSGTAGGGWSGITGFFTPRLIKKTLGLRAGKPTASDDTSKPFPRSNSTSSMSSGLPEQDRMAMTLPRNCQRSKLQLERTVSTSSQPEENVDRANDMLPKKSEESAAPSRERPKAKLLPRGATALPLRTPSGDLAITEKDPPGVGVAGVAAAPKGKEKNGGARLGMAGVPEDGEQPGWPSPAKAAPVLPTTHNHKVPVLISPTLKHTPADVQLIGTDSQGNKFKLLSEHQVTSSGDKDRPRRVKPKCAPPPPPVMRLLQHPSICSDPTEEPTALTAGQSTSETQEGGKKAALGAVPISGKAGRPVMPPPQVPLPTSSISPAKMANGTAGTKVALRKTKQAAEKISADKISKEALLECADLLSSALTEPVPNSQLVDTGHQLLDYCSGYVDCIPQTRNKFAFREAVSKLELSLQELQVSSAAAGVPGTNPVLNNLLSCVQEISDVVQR
Chain of Casein kinase I isoform alpha (P48729 whole entry, canonical isoform): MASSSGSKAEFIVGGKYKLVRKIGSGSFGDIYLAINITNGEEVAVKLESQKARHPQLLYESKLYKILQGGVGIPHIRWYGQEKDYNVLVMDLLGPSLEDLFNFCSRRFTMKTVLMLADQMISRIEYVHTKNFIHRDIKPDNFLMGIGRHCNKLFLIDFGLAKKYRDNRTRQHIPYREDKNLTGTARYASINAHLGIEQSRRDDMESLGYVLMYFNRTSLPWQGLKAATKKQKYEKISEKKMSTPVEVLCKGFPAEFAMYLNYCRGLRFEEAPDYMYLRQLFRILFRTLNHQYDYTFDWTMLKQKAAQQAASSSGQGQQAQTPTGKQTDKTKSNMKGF

How did the % of control [1] turn out when `Cn1cc(-n2cnc3c(NCc4nc5cc(Cl)c(Cl)cc5[nH]4)nc(N4CCOCC4)nc32)cn1` was run?
Its % of control is 11.8%.

`Cc1cc(-c2ccnc(Nc3cnn(C)c3)n2)ccc1CNC(=O)N1CC(OC(C)C)C1` was tested. Which % of control [2] did it give?
The % of control was 46%.

Which IC50 [3] does the source give for `CN1Cc2nccc(-c3cn(C)nc3-c3ccc(F)cc3)c2C1=O` here?
The IC50 was 630 nM.

What does the source list for `CC[C@@H]1[C@H](F)C(=O)N[C@@H]1COc1nccc2cc(C(N)=O)c(OC)cc12` [ZIMLOVISERTIB]?
% of inhibition ([4]; at 0.01 µM): 16.3%; % of inhibition ([4]; at 0.04 µM): 18.2%; % of inhibition ([4]; at 0.2 µM): 8.4%; % of inhibition ([4]; at 1 µM): 15.9%; % of inhibition ([4]; at 5 µM): 47.1%; % of inhibition [5]: -60.5%

`Cc1cc(F)c(C(=O)Nc2cccc(-c3nncn3C(C)C)n2)cc1-n1cnc(C2CC2)c1` was tested. Which % of control [6] did it give?
The % of control was 100%.

With `CN(C)C/C=C/C(=O)Nc1ccc(C(=O)N2CCCC(Nc3ncc(Cl)c(-c4c[nH]c5ccccc45)n3)C2)cc1` (stereo not drawn) as the compound, how does the % of control [7] read?
Its % of control is 97%.

`C=CC(=O)Nc1cc(-n2c(=O)ccc3cnc4ccc(-c5ccc(NS(C)(=O)=O)cc5)cc4c32)ccc1C` was tested. Which % of control ([8]; at 1 µM) did it give?
The % of control was 100%.

And the % of control ([8]; at 10 µM)?
The % of control was 59%.

What about the % of control ([9]; at 1 µM) of the same compound?
Its % of control is 100%.

What about the % of control ([9]; at 10 µM) of the same compound?
The % of control was 83%.

For `Nc1cnc(N2CCc3cc(S(=O)(=O)Nc4c(F)cc(Cl)cc4F)cc(N4CCCC4=O)c32)nc1` [TP-020n], which % of control [10] is on record?
Its % of control is 95%.

For `CCC(=O)N1CCN(c2ccc(-n3c(=O)ccc4cnc5ccc(-c6cnc7ccccc7c6)cc5c43)cc2C(F)(F)F)CC1`, which % of control [11] is on record?
Its % of control is 48%.

For `N#Cc1cccc(-c2c[nH]c3ncnc(N4CCOCC4)c23)c1`, which % of control [12] is on record?
Its % of control is 96%.
